IC50 data for 32 compounds are collected here from patent US10398783B2, “Antiproliferative compounds and conjugates made therefrom” (BRISTOL-MYERS SQUIBB COMPANY, priority 2016, dated 2019).

Each structure is given as a SMILES string.

Common to all, as to assay type: cell-based, human
Assay [1] relates to mesothelioma (H226) cancer cell line. In words: 72 hr ATP luminescence cell proliferation inhibition assay, H226. Here is the method: (§1) Proliferation inhibition was measured using a 72 hr ATP luminescence assay (Cheng et al., U.S. Pat. No. 8,394,922 B2 (2013)). The antiproliferative effects are reported as IC50's, i.e., the concentration of compound that produces a 50% inhibitory effect on cell proliferation.

For assay [2], the system named is gastric (stomach) cancer (N87) cell line. As to the kind of experiment: 72 hr ATP luminescence cell proliferation inhibition assay, N87. The conditions noted are these: N87 cells. The procedure:
as §1

Assay [3] has as its system colon cancer (HCT116) cell line. In words: 72 hr ATP luminescence cell proliferation inhibition assay, HCT116. Here is the method:
as §1

Assay [4] concerns ovarian cancer (OVCAR3) cell line. As to the kind of experiment: 72 hr ATP luminescence cell proliferation inhibition assay, OVCAR3. The procedure: as §1

Broadly, the IC50 is the concentration at which inhibition is half-maximal.

As for `COc1cc2c(cc1OCCCC(=O)Nc1ccc(C(=O)Nc3ccccc3)cc1)N=C[C@@H]1Cc3ccccc3CN1C2=O` [(Ib-01)], the IC50 in assay [1] (H226 cells) was determined as 1.2 nM; in assay [2] it was 0.65 nM; in assay [3] (HCT116 cells), 0.73 nM; in assay [4] (OVCAR3 cells) it was 0.38 nM.
On the same counts, the results for `COc1cc2c(cc1OCCCC(=O)Nc1ccccc1C(=O)Nc1ccccc1)N=C[C@@H]1Cc3ccccc3CN1C2=O` [(Ib-02)] are less than 250 nM, 93 nM, less than 250 nM and 140 nM.
The corresponding values for `COc1cc2c(cc1OCCCC(=O)Nc1cccc(C(=O)Nc3ccccc3)c1)N=C[C@@H]1Cc3ccccc3CN1C2=O` [(Ib-03)] are 9.4 nM, 2.4 nM, 6.9 nM and 3.1 nM.
The corresponding values for `COc1cc2c(cc1OCCCC(=O)Nc1ncc(C(=O)Nc3ccccc3)s1)N=C[C@@H]1Cc3ccccc3CN1C2=O` [(Ib-04)] are 5.6 nM, 2.6 nM, 2.7 nM and 0.78 nM.
Turning to `COc1cc2c(cc1OCCCC(=O)Nc1nc(C(=O)Nc3ccccc3)cs1)N=C[C@@H]1Cc3ccccc3CN1C2=O` [(Ib-05)], the concentration for half-maximal inhibition (IC50) in assay [1] (H226 cells) came out at 0.23 nM; in assay [2] it was 0.11 nM; in assay [3] (HCT116 cells) it was 0.12 nM; in assay [4] (OVCAR3 cells), 0.27 nM.
On the same counts, the results for `COc1cc2c(cc1OCCCC(=O)Nc1cc(C(=O)Nc3ccc(-n4cnc(C)n4)nc3)n(C)c1)N=C[C@@H]1Cc3ccccc3CN1C2=O` [(Ib-06)] are less than 0.004 nM, 0.009 nM, 0.008 nM and 0.031 nM.
The corresponding values for `COc1cc2c(cc1OCCCC(=O)Nc1cc(C(=O)Nc3ccc(-n4cnc(Cl)c4)nc3)n(C)c1)N=C[C@@H]1Cc3ccccc3CN1C2=O` [(Ib-07)] are 0.02 nM, 0.073 nM, 0.018 nM and 0.024 nM.
On the same counts, the results for `COc1cc2c(cc1OCCCC(=O)Nc1cc(C(=O)Nc3ccc(-n4cnc(C)n4)c(F)c3)n(C)c1)N=C[C@@H]1Cc3ccccc3CN1C2=O` [(Ib-08)] are 0.007 nM, 0.006 nM, less than 0.004 nM and 0.013 nM.
Take `COc1cc2c(cc1OCCCC(=O)Nc1cc(C(=O)Nc3ccc(-n4cnc(C)n4)c(C(F)F)c3)n(C)c1)N=C[C@@H]1Cc3ccccc3CN1C2=O` [(Ib-09)]: the concentration for half-maximal inhibition (IC50) in assay [1] (H226 cells) came to 0.05 nM; in assay [2] it was 0.035 nM; in assay [3] (HCT116 cells), 0.039 nM; in assay [4] (OVCAR3 cells) it was 0.12 nM.
The corresponding values for `COc1cc2c(cc1OCCCC(=O)Nc1cc(C(=O)Nc3ccc(-n4cnc(C(F)F)n4)c(OC)c3)n(C)c1)N=C[C@@H]1Cc3ccccc3CN1C2=O` [(Ib-10] are 0.018 nM, 0.026 nM, 0.014 nM and 0.037 nM.
Consider `COc1cc2c(cc1OCCCC(=O)Nc1cc(C(=O)Nc3ccc(-n4cnc(C)n4)c(OCC(F)F)c3)n(C)c1)N=C[C@@H]1Cc3ccccc3CN1C2=O` [(Ib-11)], for which the IC50 was 0.98 nM in assay [1] (H226 cells), 0.12 nM in assay [2], 0.026 nM in assay [3] (HCT116 cells) and 0.1 nM in assay [4] (OVCAR3 cells).
In the case of `COc1cc2c(cc1OCCCC(=O)Nc1cc(C(=O)Nc3ccc(-n4cnc(C)n4)c(OC(F)F)c3)n(C)c1)N=C[C@@H]1Cc3ccccc3CN1C2=O` [(Ib-12)], the half-maximal inhibitory concentration (IC50) turned out to be 0.059 nM in assay [1] (H226 cells), 0.027 nM in assay [2], 0.023 nM in assay [3] (HCT116 cells) and 0.074 nM in assay [4] (OVCAR3 cells).
For the compound `COc1cc2c(cc1OCCCC(=O)Nc1cc(C(=O)Nc3ccc(-n4cnc(C)n4)c(OC)c3)n(C)c1)N=C[C@@H]1Cc3ccccc3CN1C2=O` [(Ib-13)], the IC50 was 0.039 nM in assay [1] (Homo sapiens, NCI-H226, H226 cells); 0.14 nM in assay [2] (Homo sapiens); 0.036 nM in assay [3] (Homo sapiens, HCT-116, HCT116 cells); 0.17 nM in assay [4] (Homo sapiens, OVCAR-3, OVCAR3 cells).
As for `COc1cc2c(cc1OCCCC(=O)Nc1cc(C(=O)Nc3ccc(-c4cccc(C(=O)OC(C)C)c4)cc3)n(C)c1)N=C[C@@H]1Cc3ccccc3CN1C2=O` [(Ib-14)], the IC50 in assay [1] (H226 cells) amounted to 0.67 nM; in assay [2], 0.049 nM; in assay [3] (HCT116 cells), 0.07 nM; in assay [4] (OVCAR3 cells), 0.18 nM.
The corresponding values for `COc1ccc(-c2ccc(NC(=O)c3cc(NC(=O)CCCOc4cc5c(cc4OC)C(=O)N4Cc6ccccc6C[C@H]4C=N5)cn3C)cc2)cc1` [(Ib-15)] are less than 0.004 nM, less than 0.004 nM, 0.002 nM and less than 0.004 nM.
On to `COc1cc2c(cc1OCCCC(=O)Nc1cc(C(=O)Nc3ccc(-n4cnc(C)n4)cc3)n(C)c1)N=C[C@@H]1Cc3ccccc3CN1C2=O` [(Ib-16)], for which the IC50 was less than 0.004 nM in assay [1] (H226 cells), less than 0.004 nM in assay [2], less than 0.004 nM in assay [3] (HCT116 cells) and 0.12 nM in assay [4] (OVCAR3 cells).
As for `COc1cc2c(cc1OCCCC(=O)Nc1cc(C(=O)Nc3ccc(-n4cncn4)cc3)n(C)c1)N=C[C@@H]1Cc3ccccc3CN1C2=O` [(Ib-17)], the 50% inhibitory concentration (IC50) in assay [1] (H226 cells) is less than 0.004 nM; in assay [2] it was 0.009 nM; in assay [3] (HCT116 cells) it was 0.011 nM; in assay [4] (OVCAR3 cells), 0.028 nM.
On the same counts, the results for `COc1cc2c(cc1OCCCC(=O)Nc1cc(C(=O)Nc3ccc(-n4cnc(C(F)F)c4)c(OC)c3)n(C)c1)N=C[C@@H]1Cc3ccccc3CN1C2=O` [(Ib-18)] are 0.11 nM, 0.052 nM, 0.055 nM and 0.2 nM.
The corresponding values for `COc1cc2c(cc1OCCCC(=O)Nc1cc(C(=O)Nc3ccc(-n4cnc(Cl)c4)c(OC)c3)n(C)c1)N=C[C@@H]1Cc3ccccc3CN1C2=O` [(Ib-19)] are 0.11 nM, 0.045 nM, 0.038 nM and 0.23 nM.
Turning to `COc1cc2c(cc1OCCCC(=O)Nc1cc(C(=O)Nc3ccc(-n4cnc(Cl)c4)c(F)c3)n(C)c1)N=C[C@@H]1Cc3ccccc3CN1C2=O` [(Ib-20)], the IC50 was found to be 0.031 nM in assay [1] (H226 cells), 0.014 nM in assay [2], 0.027 nM in assay [3] (HCT116 cells) and 0.1 nM in assay [4] (OVCAR3 cells).
The corresponding values for `COc1cc2c(cc1OCCCC(=O)Nc1cc(C(=O)Nc3ccc(-n4cnc(C)c4)c(OC)c3)n(C)c1)N=C[C@@H]1Cc3ccccc3CN1C2=O` [(Ib-21)] are 0.19 nM, 0.091 nM, 0.057 nM and 0.35 nM.
The corresponding values for `COc1cc2c(cc1OCCCC(=O)Nc1cc(C(=O)Nc3ccc(-n4ccnc4)cc3)n(C)c1)N=C[C@@H]1Cc3ccccc3CN1C2=O` [(Ib-22)] are 0.18 nM, 0.24 nM, 0.088 nM and 0.91 nM.
As to `COc1cc2c(cc1OCCCC(=O)Nc1cc(C(=O)Nc3ccc(-c4cocn4)cc3)n(C)c1)N=C[C@@H]1Cc3ccccc3CN1C2=O` [(Ib-23)], the IC50 came to 0.036 nM in assay [1] (H226 cells), 0.014 nM in assay [2], 0.007 nM in assay [3] (HCT116 cells) and 0.022 nM in assay [4] (OVCAR3 cells).
In the case of `COc1cc2c(cc1OCCCC(=O)Nc1cc(C(=O)Nc3cnn(-c4ccccc4)c3)n(C)c1)N=C[C@@H]1Cc3ccccc3CN1C2=O` [(Ib-24)], the IC50 in assay [1] (H226 cells) was 0.053 nM; in assay [2], 0.074 nM; in assay [3] (HCT116 cells), 0.008 nM; in assay [4] (OVCAR3 cells) it was 0.16 nM.
The corresponding values for `COC(=O)c1nc(-c2ccc(NC(=O)c3cc(NC(=O)CCCOc4cc5c(cc4OC)C(=O)N4Cc6ccccc6C[C@H]4C=N5)cn3C)cc2)cn1C` [(Ib-25)] are 0.15 nM, 0.084 nM, 0.057 nM and 0.35 nM.
The corresponding values for `COc1cc2c(cc1OCCCC(=O)Nc1cc(C(=O)Nc3ccc(-n4cnc(C)n4)c(O)c3)n(C)c1)N=C[C@@H]1Cc3ccccc3CN1C2=O` [(Ib-26)] are less than 0.004 nM, less than 0.004 nM, 0.025 nM and 0.44 nM.
On the same counts, the results for `C=CCOc1cc(NC(=O)c2cc(NC(=O)CCCOc3cc4c(cc3OC)C(=O)N3Cc5ccccc5C[C@H]3C=N4)cn2C)ccc1-n1cnc(C)n1` [(Ib-27)] are 0.067 nM, 0.021 nM, 0.02 nM and 0.15 nM.
In the case of `COc1cc2c(cc1OCCCC(=O)Nc1cc(C(=O)Nc3cc(C)c(-n4cncn4)c(C)c3)n(C)c1)N=C[C@@H]1Cc3ccccc3CN1C2=O` [(Ib-28)], the half-inhibitory concentration (IC50) in assay [1] (H226 cells) was 0.72 nM; in assay [2], 0.18 nM; in assay [3] (HCT116 cells), 0.18 nM; in assay [4] (OVCAR3 cells), 0.4 nM.
In the case of `COc1cc2c(cc1OCCCC(=O)Nc1cc(C(=O)Nc3ccc(-n4cncn4)c(OC)c3)n(C)c1)N=C[C@@H]1Cc3ccccc3CN1C2=O` [(Ib-29)], the IC50 in assay [1] (H226 cells) was determined as 0.1 nM; in assay [2], 0.042 nM; in assay [3] (HCT116 cells), 0.041 nM; in assay [4] (OVCAR3 cells), 0.16 nM.
On the same counts, the results for `COc1cc2c(cc1OCCCC(=O)Nc1cc(C(=O)Nc3ccc(-c4ncc[nH]4)cc3)n(C)c1)N=C[C@@H]1Cc3ccccc3CN1C2=O` [(Ib-30)] are 0.66 nM, 0.37 nM, 0.1 nM and 0.76 nM.
On the same counts, the results for `COc1cc2c(cc1OCCCC(=O)Nc1cc(C(=O)Nc3ccc4c(c3)OCc3nncn3-4)n(C)c1)N=C[C@@H]1Cc3ccccc3CN1C2=O` [(Ib-31)] are 0.28 nM, 0.23 nM, 0.078 nM and 0.94 nM.
`COc1cc2c(cc1OCCCC(=O)Nc1cc(C(=O)Nc3ccc4c(c3)-n3cnnc3CO4)n(C)c1)N=C[C@@H]1Cc3ccccc3CN1C2=O` [(Ib-32)]: the 50% inhibitory concentration (IC50) turned out to be 3.1 nM in assay [1] (H226 cells), 0.41 nM in assay [2], 0.3 nM in assay [3] (HCT116 cells) and 1.6 nM in assay [4] (OVCAR3 cells).
